Test results as given in patent publication US20260174750A1 (Merck Sharp & Dohme LLC, priority 2022, published 2026).

These molecules were tested against T1, human DGAT2 (Homo sapiens, UniProt Q96PD7) (assay: biochemical).
T1 sequence (Q96PD7 1-388): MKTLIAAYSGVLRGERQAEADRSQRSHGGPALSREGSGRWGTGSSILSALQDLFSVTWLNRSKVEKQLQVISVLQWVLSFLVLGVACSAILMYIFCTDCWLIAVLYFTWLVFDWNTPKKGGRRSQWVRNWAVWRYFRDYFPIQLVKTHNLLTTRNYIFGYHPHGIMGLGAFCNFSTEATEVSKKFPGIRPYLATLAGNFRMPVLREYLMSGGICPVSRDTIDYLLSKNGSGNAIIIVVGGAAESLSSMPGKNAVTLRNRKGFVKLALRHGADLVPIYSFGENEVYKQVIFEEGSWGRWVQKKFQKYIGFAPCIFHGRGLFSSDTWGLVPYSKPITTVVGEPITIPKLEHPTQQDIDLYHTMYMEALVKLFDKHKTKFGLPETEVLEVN
Method: Cell pellets were suspended in buffer containing 10 mM Tris-HCl pH 7.5, 1 mM EDTA, 250 mM sucrose and Complete Protease Inhibitor Cocktail (Sigma Aldrich), and sonicated on ice. Cell debris were removed by centrifugation at 2000×g for 15 minutes. Membrane fractions were isolated by ultracentrifugation (100,000×g), resuspended in the same buffer, and frozen (−80° C.) for later use. The protein concentration was determined with the Pierce™ BCA Protein Assay Kit (Thermo Fisher Scientific).
LC/MS/MS analyses were performed using Thermal Fisher's LX4-TSQ Vantage system. This system consists of an Agilent binary high-performance liquid chromatography (HPLC) pump and a TSQ Vantage triple quadrupole MS/MS instrument. For each sample, 2 μL samples from the top organic layer of in-plate liquid-liquid extraction were injected onto a Thermo Betabasic C4 column (2.1 mm×20 mm, 5 μm particle size). The samples were then eluted using the following conditions; mobile phase: Isopropanol:acetonitrile/10 mM ammonium formate=50/35/15 (v/v/v), flow rate: 0.8 mL/min, temperature: 25° C. Data was acquired in positive mode using a heated electrospray ionization (HESI) interface. […] The peak area was integrated by Xcalibur Quan software. The ratio between the ^13C18 triolein generated in the reaction and spiked in internal standard ^13C21-triolein was used to generate percentage inhibition and IC50 values. […] DGAT2 activity was determined by measuring the amount of enzymatic product ^13C18-triolein (^13C-1,2,3-Tri(cis-9-octadecenoyl)glycerol) using the membrane prep mentioned above. The assay was carried out in ABgene 384-well assay plates in a final volume of 25 μL at rt.

Row | SMILES | IC50 [nM]
1 | CCOc1cccnc1Oc1ccc2nc(C(=O)NC3(C)CCS(=O)(=O)CC3)nn2c1 [Example 2, 6-[(3-ethoxy-2-pyridyl)oxy]-N-(4-methyl-1,1-dioxo-thian-4-yl)-[1,2,4]triazolo[1,5-a]pyridine-2-carboxamide] | 17
2 | CCOc1cccnc1Oc1ccc2nc(C(=O)NC3(C)CS(=O)(=O)C3)nn2c1 [Example 3, 6-[(3-ethoxy-2-pyridyl)oxy]-N-(3-methyl-1,1-dioxo-thietan-3-yl)-[1,2,4]triazolo[1,5-a]pyridine-2-carboxamide] | 103
3 | CCOc1cccnc1Oc1ccc2nc(C(=O)N[C@H]3CCOC3)nn2c1 [Example 4, 6-[(3-ethoxy-2-pyridyl)oxy]-N-[(3S)-tetrahydrofuran-3-yl]-[1,2,4]triazolo[1,5-a]pyridine-2-carboxamide] | 384
4 | CCOc1cccnc1Oc1ccc2nc(C(=O)N[C@@H]3CCOC3)nn2c1 [Example 5, 6-[(3-ethoxy-2-pyridyl)oxy]-N-[(3R)-tetrahydrofuran-3-yl]-[1,2,4]triazolo[1,5-a]pyridine-2-carboxamide] | 2440
5 | CCOc1cccnc1Oc1ccc2nc(C(=O)N[C@H]3CC[C@@](OC)(C(F)(F)F)CC3)nn2c1 [Example 6, 6-[(3-ethoxy-2-pyridyl)oxy]-N-[4-methoxy-4-(trifluoromethyl)cyclohexyl]-[1,2,4]triazolo[1,5-a]pyridine-2-carboxamide] | 149
6 | CC1(NC(=O)c2nc3ccc(Oc4ncccc4OCC(F)(F)F)cn3n2)CCS(=O)(=O)CC1 [Example 7, N-(4-methyl-1,1-dioxo-thian-4-yl)-6-[[3-(2,2,2-trifluoroethoxy)-2-pyridyl]oxy]-[1,2,4]triazolo[1,5-a]pyridine-2-carboxamide] | 126
7 | CC1(NC(=O)c2nc3ccc(Oc4ncccc4OCC(F)(F)F)cn3n2)CCC(F)(F)CC1 [Example 8, N-(4,4-difluoro-1-methyl-cyclohexyl)-6-[[3-(2,2,2-trifluoroethoxy)-2-pyridyl]oxy]-[1,2,4]triazolo[1,5-a]pyridine-2-carboxamide] | 177
8 | CC1(NC(=O)c2nc3ccc(Oc4ncccc4OCC(F)(F)F)cn3n2)CC(F)(F)C1 [Example 9] | 8250
9 | CC1(NC(=O)c2nc3ccc(Oc4ncc(Cl)cc4OCC(F)(F)F)cn3n2)CS(=O)(=O)C1 [Example 10, 6-[[5-chloro-3-(2,2,2-trifluoroethoxy)-2-pyridyl]oxy]-N-(3-methyl-1,1-dioxo-thietan-3-yl)-[1,2,4]triazolo[1,5-a]pyridine-2-carboxamide] | 151
10 | O=C(N[C@H]1CCCC(F)(F)[C@@H]1O)c1nc2ccc(Oc3ncc(Cl)cc3OCC(F)(F)F)cn2n1 [Example 11] | 60
11 | Cc1c(Oc2ncc(Cl)cc2OCC2(F)CC2)ccc2nc(C(=O)NC3(C)CCS(=O)(=O)CC3)nn12 [Example 15, 6-[[5-chloro-3-[(1-fluorocyclopropyl)methoxy]-2-pyridyl]oxy]-5-methyl-N-(4-methyl-1,1-dioxo-thian-4-yl)-[1,2,4]triazolo[1,5-a]pyridine-2-carboxamide] | 11
12 | Cc1c(Oc2ncc(F)cc2OCC2(F)CC2)ccc2nc(C(=O)NC3(C)CCS(=O)(=O)CC3)nn12 [Example 16, 6-[[5-fluoro-3-[(1-fluorocyclopropyl)methoxy]-2-pyridyl]oxy]-5-methyl-N-(4-methyl-1,1-dioxo-thian-4-yl)-[1,2,4]triazolo[1,5-a]pyridine-2-carboxamide] | 25
13 | Cc1c(Oc2ncc(Cl)cc2OCC(C)(F)F)ccc2nc(C(=O)NC3(C)CCS(=O)(=O)CC3)nn12 [Example 18] | 50
14 | Cc1c(Oc2ncc(F)cc2OCC(C)(F)F)ccc2nc(C(=O)NC3(C)CCS(=O)(=O)CC3)nn12 [Example 19, 6-[[3-(2,2-difluoropropoxy)-5-fluoro-2-pyridyl]oxy]-5-methyl-N-(4-methyl-1,1-dioxo-thian-4-yl)-[1,2,4]triazolo[1,5-a]pyridine-2-carboxamide] | 210
15 | Cc1c(Oc2ncc(Cl)cc2OCC(F)(F)F)ccc2nc(C(=O)N[C@H]3CCCC(F)(F)[C@@H]3O)nn12 [Example 21, 6-[[5-chloro-3-(2,2,2-trifluoroethoxy)-2-pyridyl]oxy]-N-[(1S,2R)-3,3-difluoro-2-hydroxy-cyclohexyl]-5-methyl-[1,2,4]triazolo[1,5-a]pyridine-2-carboxamide] | 581
16 | Cc1cc2nc(C(=O)N[C@H]3CCCC(F)(F)[C@@H]3O)nn2cc1Oc1ncc(Cl)cc1OCC(F)(F)F [Example 23, 6-[[5-chloro-3-(2,2,2-trifluoroethoxy)-2-pyridyl]oxy]-N-[(1S,2R)-3,3-difluoro-2-hydroxy-cyclohexyl]-7-methyl-[1,2,4]triazolo[1,5-a]pyridine-2-carboxamide] | 91
17 | Cc1cc2nc(C(=O)NC3(C)CCS(=O)(=O)CC3)nn2c(C)c1Oc1ncc(Cl)cc1OCC(F)(F)F [Example 24, 6-((5-Chloro-3-(2,2,2-trifluoroethoxy)pyridin-2-yl)oxy)-5,7-dimethyl-N-(4-methyl-1,1-dioxidotetrahydro-2H-thiopyran-4-yl)-[1,2,4]triazolo[1,5-a]pyridine-2-carboxamide] | 181
18 | Cc1cc2nc(C(=O)NC3(C)CCS(=O)(=O)CC3)nn2c(C)c1Oc1nccnc1OCC(F)(F)F [Example 25, 5,7-dimethyl-N-(4-methyl-1,1-dioxo-thian-4-yl)-6-[3-(2,2,2-trifluoroethoxy)pyrazin-2-yl]oxy-[1,2,4]triazolo[1,5-a]pyridine-2-carboxamide] | 91
19 | CC1(NC(=O)c2nc3c(F)cc(Oc4ncc(Cl)cc4OCC(F)(F)F)cn3n2)CCS(=O)(=O)CC1 [Example 26, 6-((5-Chloro-3-(2,2,2-trifluoroethoxy)pyridin-2-yl)oxy)-8-fluoro-N-(4-methyl-1,1-dioxidotetrahydro-2H-thiopyran-4-yl)-[1,2,4]triazolo[1,5-a]pyridine-2-carboxamide] | 9.5
20 | Cc1c(Oc2ncc(Cl)cc2OCC(F)(F)F)cc(F)c2nc(C(=O)NC3(C)CCS(=O)(=O)CC3)nn12 [Example 28, 6-[[5-Chloro-3-(2,2,2-trifluoroethoxy)-2-pyridyl]oxy]-8-fluoro-5-methyl-N-(4-methyl-1,1-dioxo-thian-4-yl)-[1,2,4]triazolo[1,5-a]pyridine-2-carboxamide] | 12
21 | Cc1c(Oc2ncc(Cl)cc2OCC(F)(F)F)cc(F)c2nc(C(=O)NC3(C)CS(=O)(=O)C3)nn12 [Example 29, 6-[[5-chloro-3-(2,2,2-trifluoroethoxy)-2-pyridyl]oxy]-8-fluoro-5-methyl-N-(3-methyl-1,1-dioxo-thietan-3-yl)-[1,2,4]triazolo[1,5-a]pyridine-2-carboxamide] | 383
22 | Cc1c(Oc2ncc(F)cc2OCC(F)(F)F)cc(F)c2nc(C(=O)NC3(C)CCS(=O)(=O)CC3)nn12 [Example 30, 8-fluoro-6-[[5-fluoro-3-(2,2,2-trifluoroethoxy)-2-pyridyl]oxy]-5-methyl-N-(4-methyl-1,1-dioxo-thian-4-yl)-[1,2,4]triazolo[1,5-a]pyridine-2-carboxamide] | 19
23 | Cc1c(Oc2ncc(Cl)cc2OCC(C)(F)F)cc(F)c2nc(C(=O)NC3(C)CCS(=O)(=O)CC3)nn12 [Example 31, 6-[[5-chloro-3-(2,2-difluoropropoxy)-2-pyridyl]oxy]-8-fluoro-5-methyl-N-(4-methyl-1,1-dioxo-thian-4-yl)-[1,2,4]triazolo[1,5-a]pyridine-2-carboxamide] | 30
24 | Cc1c(Oc2ncc(F)cc2OCC(C)(F)F)cc(F)c2nc(C(=O)NC3(C)CCS(=O)(=O)CC3)nn12 [Example 32, 6-[[3-(2,2-difluoropropoxy)-5-fluoro-2-pyridyl]oxy]-8-fluoro-5-methyl-N-(4-methyl-1,1-dioxo-thian-4-yl)-[1,2,4]triazolo[1,5-a]pyridine-2-carboxamide] | 61
25 | Cc1c(Oc2nccnc2OCC(F)F)cc(F)c2nc(C(=O)NC3(C)CCS(=O)(=O)CC3)nn12 [Example 34, 6-[3-(2,2-difluoroethoxy)pyrazin-2-yl]oxy-8-fluoro-5-methyl-N-(4-methyl-1,1-dioxo-thian-4-yl)-[1,2,4]triazolo[1,5-a]pyridine-2-carboxamide] | 31
26 | Cc1c(OCc2ncc(F)cc2OCC(F)(F)F)ccc2nc(C(=O)NC3(C)CCS(=O)(=O)CC3)nn12 [Example 35, 6-((5-Fluoro-3-(2,2,2-trifluoroethoxy)pyridin-2-yl)methoxy)-5-methyl-N-(4-methyl-1,1-dioxidotetrahydro-2H-thiopyran-4-yl)-[1,2,4]triazolo[1,5-a]pyridine-2-carboxamide] | 1680
27 | Cc1c(OCc2ncc(Cl)cc2OCC(F)F)ccc2nc(C(=O)NC3(C)CCS(=O)(=O)CC3)nn12 [Example 36, 6-((5-chloro-3-(2,2-difluoroethoxy)pyridin-2-yl)methoxy)-5-methyl-N-(4-methyl-1,1-dioxidotetrahydro-2H-thiopyran-4-yl)-[1,2,4]triazolo[1,5-a]pyridine-2-carboxamide] | 336
